Experimental data from a melting point compilation (Tetko et al.; mined from patent text by program, amines drawn as free bases though some values may be those of a salt).

| Compound | melting point [°C] |
| --- | --- |
| O=C(O)CCN1CCN2c3ccccc3Cc3ccccc3C2C1 (stereo not given) | 195 to 197 |
| O=C(O)Cn1c(-c2cc(Cl)ccn2)nc2cccnc21 | 218 to 220 |
| CC(C)(C)C(NC(=O)Cc1ccc2ccccc2c1)NC(=NC#N)Nc1cccc2ncccc12 (stereo not given) | 200 to 201 |
| Oc1cccc2c1OCCCO2 | 112 to 114 |
| Fc1ccc2c(c1F)C(C#CC1CC1)(C(F)(F)F)NC(=S)N2 (racemic) | 241 to 243 |
| CC(C(=O)O)c1c(Sc2ccccc2)c2cc(F)ccc2n1Cc1ccc(Cl)cc1 (stereo not given) | 80 to 82 |
| CCCC1(CCC)CCCc2c(Nc3ccc(Cl)cc3Cl)nc(C)nc21 | 238 to 244 |
| CC(C)(C)OC(=O)N1CCC[C@H]1COc1cccc2[nH]ccc12 | 40 to 41 |
| CN(C)C1CCc2[nH]c3cc(OCc4ccccc4)ccc3c2C1 (stereo not given) | 237 to 239 |
| COCCOc1ccc(CCl)c(Oc2ncc(C(F)(F)F)cc2Cl)c1 | 108 to 111 |
| CC(C)(C)[Si](O[C@@H]1CC(=O)C[C@H](O[Si](c2ccccc2)(c2ccccc2)C(C)(C)C)C1)(c1ccccc1)c1ccccc1 | 108 to 109 |
| NNc1ccnc(-c2ccc([N+](=O)[O-])o2)n1 | 220 to 222 |
| CCOC(=O)c1c(SCc2ccc(OC)cc2)c(CC)c2cc(Cl)ccn2c1=O | 159 to 160 |
| CC(=O)c1ccccc1-c1cccc(C(=O)O)c1 | 143 |
| COc1cc(-c2nc(C)ncc2Br)c(F)cc1Cl | 106 to 107 |
| CCC(C(C)=CC(CNC(=O)Cc1n[nH]c(=O)c2ncccc12)=NO)[N+](=O)[O-] (stereo not given) | 143 to 145 |
| Cc1nnc2c(-c3ccccn3)cccn12 | 142 to 143 |
| CC(C)N1C(=O)N(c2ccc(C#N)c(C(F)(F)F)c2)C(=O)C1(CF)CF | 153 to 154 |
| CC(C)c1nc(C(F)(F)F)ccc1C(=O)c1c(S(C)(=O)=O)noc1C1CC1 | 105 to 106 |
| O=C(O)c1cn(C2CC2)c2c(F)c(F)c(F)c(NC(=O)C(F)(F)F)c2c1=O | 188 |
| CC(=O)Nc1cccc2c1CN(c1ccc3ccn(C)c3c1)C2=O | 180 to 184 |
| O=C1CCCCC1c1cnc2ccccc2c1 (stereo not given) | 114 to 115 |
| Cc1cc(=O)[nH]c(SCc2ccccn2)n1 | 154 to 156 |
| COc1cccc2c(Cl)nc(C)nc12 | 101 to 102 |
| CC(=CC(=O)c1ccc(Cl)cc1)N(C)C | 103 to 105 |
| Cn1ncc2c1-c1c(Oc3cc4c(cc3[N+](=O)[O-])OCO4)sc(C(N)=O)c1CC2 | 230 to 231 |
| O=C(Nc1cnccn1)C(Cl)(Cl)Cl | 68 |

| Compound | melting point [°C] |
| --- | --- |
| O=C1c2ccccc2CN1c1ccc2c(c1)OCCO2 | 170 to 176 |
| Cc1nc(C)c(Cl)c(NCc2ccc(Oc3ccc4ncc([N+](=O)[O-])n4n3)c(O)c2)n1 | > 114 |
| CN(Cc1cccc2c1CN(C1CCC(=O)NC1=O)C2=O)C(=O)Nc1cccc2ccccc12 (stereo not given) | 292 to 294 |
| NC(=O)CCC(=O)Nc1c(C(=O)c2ccccc2)[nH]c2cc(Cl)ccc12 | 258 to 263 |
| COC(=O)c1ccc(C(C)(C)C)[nH]c1=O | 171 to 174 |
| CC(NC(=O)Cc1cc(F)cc(F)c1)C(=O)NC1C(=O)N(C)Cc2ccccc21 (stereo not given) | 174 to 175 |
| O=C1CC(=O)C2C3C=CC(CC3)C12 (stereo not given) | 264 |
| C[Si]1(C(CN)CC(=O)O)CCCCC1 (stereo not given) | 160 to 162 |
| CN1CCC(c2c[nH]c3ccc(C(=O)c4ccc(F)cc4)cc23)CC1 | 89 |
| CCS(=O)(=O)c1ccc2c3c(cccc13)C(=O)N2 | 270 to 272 |
| COC(=O)Cc1cc(=O)[nH]c2cc(F)ccc12 | 255 to 256 |
| CS(=O)(=O)N(c1ccc([N+](=O)[O-])cn1)S(C)(=O)=O | 175 to 177 |
| CCCCCC(C)NC1=NS(=O)(=O)c2sc(Cl)cc2N1 (stereo not given) | 158 to 162 |
| CNC(=O)Nc1snc(S(C)=O)c1C#N (stereo not given) | 241 |
| O=C(CC1CCCOC1=O)c1ccccc1 (stereo not given) | 93 to 94 |
| Cc1nc(-n2cnn(Cc3ccc(F)cc3)c2=O)sc1C(=O)NCc1cccc(N(C)C)c1 | 149 to 151 |
| COc1cc(OC)cc(-c2ncoc2-c2ccc(OC)c(O)c2N)c1 | 140 to 143 |
| O=C(O)C(CCC(=O)N1CCOCC1)Cc1cccc2ccccc12 (stereo not given) | 130 to 135 |
| C[C@@H](O)Cn1ccc2cc(Cl)c(F)cc21 | 108 to 110 |
| COc1cc2ncc(C#N)c(Nc3ccc(Oc4ccccc4)cc3)c2cc1OC | 239 to 241 |
| Clc1ccc2nc(Cl)cnc2c1 | 152 |
| CCCc1nc2c(N)nc3cc(-c4ccccc4)ccc3c2n1CCCONC(=O)C(C)C | 169 to 171 |
| Nc1cc(C(F)(F)F)cc2c(Cl)ccnc12 | 57 to 58 |
| Cc1c(C(=O)CS(=O)(=O)Cc2ccc(Cl)cc2)sc2ccc(Cl)cc12 | 204 to 206 |
| CNC(=O)ON=C1SCC(=O)N(C)C1C (stereo not given) | 161 to 163 |
| CCOCC(N=O)C(C)(C)Cl (stereo not given) | 84 to 85 |
| CN(CCNCc1ccccc1)Cc1ccccc1 | 83 to 84 |

| Compound | melting point [°C] |
| --- | --- |
| OCCOc1nccc(-c2c(-c3ccc(F)cc3)ncn2C2CCC(O)CC2)n1 (stereo not given) | 191 to 193 |
| ClCc1coc(C=C2c3ccccc3-c3ccccc32)n1 | 175 to 176 |
| C=CCC12CCN=C1C(Br)Cc1ccc(OC)cc12 (stereo not given) | 112 to 117 |
| COc1ccc(N2CCN(c3ccc([N+](=O)[O-])cc3)CC2)nc1 | 160 |
| COc1ccc(-c2cc3nc(N4CCOCC4)c4ccccc4c3nn2)cc1 | 218 to 220 |
| CCCCNC(=O)Oc1cccc(NC(=O)C=C(C)OC)c1 | 166 |
| O=C(O)Cc1ccc(NC(=O)C(COc2ccc(Cl)cc2)NS(=O)(=O)c2ccc(F)cc2)cc1 (racemic) | 184 to 186 |
| Nc1nnnc(-c2c[nH]nn2)c1-c1cnnnn1 | 215 |
| NCCCCCNc1cccc2c1C(=O)c1c(NCCCCCN)cccc1C2=O | 115 to 116 |
| N#CC1(c2ccccc2)CCN(Cc2ccccc2)CC1 | 73 to 74 |
| CN(C)c1nc(=O)n(-c2cc(OCc3ccccc3)c(Cl)cc2F)c(=O)n1C | 193 to 194 |
| O=C(O)c1ccc2c(c1)C(=Cc1ccccc1)OC2=O | 261 |
| CN(C)C(=S)Oc1ccc(S(=O)(=O)c2ccc(C#N)cc2)cc1 | 158 to 167 |
| N#CCc1ccc(C2CCCCC2)cc1 | 48 to 49 |
| CCC(CC)N(Cc1ccc(S(C)(=O)=O)cc1)S(=O)(=O)c1ccc(Cl)cc1 | 166 to 168 |
| CC(CCC(O)C(C)(C)O)C1CCC2C3CCC4CC(O)CCC4(C)C3CCC12C (stereo not given) | 152 to 154 |
| Cc1ccc(NC(=O)C(=O)N2CCC(Cc3ccccc3)CC2)cc1 | 115 to 117 |
| COc1ccc(-c2cc3ccccc3[nH]2)cc1NC(=S)N[C@H](C)c1ccccc1 | 179 to 181 |
| CCCCCCCCCCCCCCOc1ccc(NC(=O)Nc2cccc(CBr)c2)cc1 | 164 to 169 |
| COc1ccc(-c2ccc(C(=O)Nc3ccc4cc(CN5CCCC5)cnc4c3C)cc2F)cc1 | 174 to 176 |
| C=C(C(=O)OC(C)(C)C)C(O)c1ccc(C(=O)OC)cc1 (stereo not given) | 70 |
| CC(C)(C)OC(=O)Nc1cccc(C(=O)OCc2ccccc2)c1 | 151 to 153 |
| CC1Nc2ccccc2N2CCc3cccc1c32 (stereo not given) | 127 to 134 |
| CC(C)(Oc1ccc(Oc2ccc(OC(C)(C)C(=O)O)cc2)cc1)C(=O)O | 125 |
| CON=C(C)CCc1nc2c(N)nc3ccccc3c2n1CC(C)(C)O | 182 to 184 |
| Cc1oc(-c2ccccc2)nc1COc1ccc(CCc2oc(-c3ccccc3)nc2CCC(=O)O)cc1 | 110 to 111 |
| COc1ccc(N2CCN(c3c(C)c(C)c4c(c3C)C(c3ccc(C)cc3)C(C)(C)O4)CC2)cc1 (stereo not given) | 189 to 191 |

| Compound | melting point [°C] |
| --- | --- |
| CCc1ccc2ncc(NC(=O)C=Cc3cc(OC)c(OC(C)=O)c(OC)c3)c(-c3ccccc3Cl)c2c1 | 136 to 137 |
| Nc1c(Cl)cc(C(O)CNCCCCCOCCCc2ccc(C(=O)O)o2)cc1Cl (stereo not given) | 89 to 91 |
| N#Cc1cc(=O)cc(-c2ccccc2)o1 | 146 to 149 |
| COCOc1cc(OC)ccc1C(=O)c1ccc(OCc2nc(-c3ccccc3)oc2C)cc1 | 119 to 120 |
| COC[C@H]1CN(c2ccc(OCCC3(O)CCCCC3)cc2)C(=O)O1 | 87 |
| CCOC(=O)c1cc(N=Cc2ccccc2)ccc1O | 63 to 65 |
| CCC(C)(C)c1ccc(Oc2cc(N)c(O)c([N+](=O)[O-])c2)c(C(C)(C)CC)c1 | 144 to 148 |
| CN(C)c1nc(N)nc2c1ncn2C1C=CC(CO)C1 (stereo not given) | 173 to 174 |
| Cc1noc(C2CC2)c1I | 71 |
| COc1ccc2c3ccnc(C)c3n(Cc3ccccc3)c2c1 | 131 to 133 |
| O=C1N(c2ccccc2)CCN1C1CCN(Cc2ccccc2)CC1 | 168 to 170 |
| C=CCNC(=O)C1CCc2cc(C3CCCCC3)ccc2O1 (stereo not given) | 93 to 94 |
| CC1(O)OC(=O)C=C1c1ccccc1 (stereo not given) | 105 to 107 |
| CCc1nc(C(=O)O)c(C(=O)O)[nH]1 | 265 to 268 |
| CC(C)(C)OC(=O)N[C@@H](CC(N)=O)C(N)=O | 190 to 192 |
| O=C(O)CC1CCCc2c1[nH]c1ccc(F)cc21 (stereo not given) | 124 to 126 |
| CCN1C(=O)CC(C)(C)c2ccc(C(=O)O)cc21 | 202 to 204 |
| Cc1cc2c(-c3cccc(C(=O)O)c3)c(CC(=O)Nc3ccc(Cl)cc3C(F)(F)F)c(=O)oc2cc1Cl | 270 to 272 |
| CCC12CCC3=C(CC(C)c4cc(OC)ccc43)C1=CCC21OCCO1 (stereo not given) | 116 to 119 |
| Cc1cn(-c2ccc3nnc4c(C)nc(CC(C)C)n4c3c2)c(CC(C)C)n1 | 134 to 136 |
| N#Cc1cn(-c2c(Cl)cccc2Cl)c(=O)[nH]c1=O | 273 to 274 |
| O=C1CCCc2cc(Sc3ccccc3)cc(F)c21 | 112 to 113 |
| CC(C)(C)OC(=O)c1cc(-c2ccccc2)c(=O)n2ccc3ccsc3c12 | 155 to 157 |
| OCc1nc2n(n1)-c1ccccc1N(c1ccc(Cl)cc1)C2 | 190 to 195 |
